Experimental data published in paper PMC5078989, “Targeted inhibition of the COP9 signalosome for treatment of cancer” (Nature Communications, 2016).

Experiments:
RPN11 (26S proteasome) = target: T1, RPN11 (26S proteasome) (Homo sapiens, UniProt O00487); assay: Selectivity assay RPN11 (26S proteasome); assay type: biochemical; conditions: JAMM domain protease
T1 construct: purchased LifeSensors PS026
Experimental: All biochemical assays were performed at room temperature in 384-well plates in a total volume of 25.25 μl per well. Test compounds were dissolved in 90% (v/v) DMSO/water. For the assays, 250 nl of compound solution was added per well, followed by addition of 12.5 μl protease solution. After 70 min of pre-incubation at room temperature, the reactions were started by addition of 12.5 μl substrate solution and followed either by measuring fluorescence intensity (rhodamine 110-based substrates) or by fluorescence lifetime (PT14-based substrates). The effect of compound on enzymatic activity was obtained from the linear part of the progress curves and determined after 1 h (t=60 min). The final compound concentrations ranged from 100 μM to 1 nM.
RPN11 (26S proteasome). Enzyme purchased from LifeSensors (catalogue number PS026); substrate: K48-linked tetra-ubiquitin chain coupled to a rhodamine 110 fluorophore purchased from LifeSensors (catalogue number NO13–158.01); enzyme concentration: 0.75 nM; substrate concentration: 100 nM; assay buffer: 20 mM Hepes at pH 7.4, 150 mM NaCl, 0.02% Tween-20, 0.5 mM TCEP, 0.05 mM MgCl2, 1 mM ATP and 2 μM ubiquitin aldehyde.

SU-DHL-1 cells = assay: Cell viability assay (CellTiter-Glo), SU-DHL-1; assay type: cell-based, human
Experimental: (§1) Cells were maintained in a humidified incubator at 37 °C and 5% CO2. […] All cells were negatively tested for mycoplasma contamination either by the vendor or in house. […] If not stated otherwise, cells were harvested after incubation for 16 h and subjected to SDS-PAGE and western blotting. The RNA interference experiment was performed with CSN5 stealth siRNA (#HSS116986) and stealth negative control siRNA (#12935-400) (Invitrogen), which were transfected at 10 nM into HCT116 cells using […] (Qiagen) according to the manufacturer's protocols. Seventy-two hours after transfection, cells were harvested and subjected to SDS-PAGE and western blotting (see Supplementary Fig. 7 for all western blottings performed). A standardized CellTiter-Glo Assay (Promega #G7570) based on the quantification of ATP was applied according to the manufacturer's protocol to measure the amount of viable cells in culture. In brief, cells were seeded into 384-well plates at optimal density for each cell line. After 4 h, compounds were added at different concentrations in growth medium and incubated for another 72 h in a humidifying chamber at 37 °C and 5% CO2. Eventually, equal amounts of CellTiter-Glo reagent were added directly to the cells, incubated for 15 min and luminescence was recorded using PHERAstar plate reader (BMG LABTECH GmbH).

HCT116 cells = assay: Cell viability assay (CellTiter-Glo), HCT116; assay type: cell-based, human; conditions: HCT116, 72 h; cytotoxic
Experimental: as §1

[1] = Blood concentrations of CSN5i-3 in xenograft study; assay type: in vivo, SCID-bg mice; conditions: 50 mg kg^−1 BID and 100 mg kg^−1 QD oral
Experimental: All animal experiments were approved by the Kantonales Veterinäramt Basel-Stadt and were conducted in accordance with the Eidgenössisches Tierschutzgesetz and the Eidgenössische Tierschutzverordnung. SU-DHL-1 cells (1 × 10^7; DSMZ) were implanted subcutaneously into SCID-bg female 7–9-week-old mice (Taconic) and developing tumours were propagated once before subcutaneous transplantation for efficacy studies. Treatment was initiated when tumours reached 150–200 mm^3 volume. […] Randomization was conducted by using an internal computer software (Indigo). CSN5i-3 was formulated in 100 mM citrate buffer pH 3, PEG300, Kolliphor HS15, 1 N HCl (56:30:10:4%w/w). Tumour response is reported as percentage change in tumour volume at the last day of treatment relative to start of treatment. […] At day 10 of treatment blood, samples were taken and concentrations of CSN5i-3 were determined at indicated time points post dose using ultra-high-pressure liquid chromatography/tandem MS. At the end of treatment, tumours were excised and snap frozen in liquid nitrogen. Frozen tumours were pulverized using CryoPrep (Covaris Inc.) and protein lysates were prepared from tumour powder for immunoblot analysis.

SU-DHL-1 xenografts = assay: Immunoblotting for Cul1 and Skp2 of tumours excised at end of treatment; assay type: in vivo, SCID-bg mice; conditions: tumours excised at the end of the study
Experimental: (a) SU-DHL-1 xenografts were grown in SCID-bg mice and dosed by oral administration with either vehicle control or CSN5i-3 at the indicated doses and schedules. Mean tumour volumes are shown±s.e.m. (n=4; P<0.05). (b) Immunoblotting for Cul1 and Skp2 of tumours excised at the end of treatment. (c) Pharmacokinetics of CSN5i-3 post second to last dose. Mean blood concentrations are shown±s.e.m. (n=4). […] Cells from longer compound incubations were also lysed in RIPA buffer, which allows the protein concentration to be determined by BCA Protein Assay Kit (Pierce). Proteins were separated by SDS-PAGE using 4-20% Tris-Glycine Gels (Invitrogen) and subsequently transferred to polyvinylidene difluoride membranes using a Trans-Blot Turbo System (BioRad). […] Cul1 (1:500; #718700), Cul2 (1:250; #7001792), Rbx1 (1:300; #342500) (Invitrogen); Fbxw7 (1:300; # 55290-1-AP), Fbxo22 (1:500; #13606-1-AP) (Proteintech); Cul3 (1:1,000; # […]), CSN5 (1:2,000; #[…]) (Bethyl Laboratories); Fbxo3 (1:300; #AP9195) (Abgent); p21 (1:500; #556431) (BD Biosciences); Fbxo30 (1:500; # H00084085-B01) (Abnova); β-Actin (1:5,000; #A5441) (Sigma-Aldrich); Fbxo7 (1:500; #PA527589) (Pierce). Horseradish peroxidase-conjugated secondary antibodies (1:3,000) were purchased from Promega AG and bound antibody was detected by enhanced chemiluminescence (Pierce). […]

CC(C)n1nc(C(F)F)cc1C(=O)Nc1ccc([C@H]2[C@@H](O)CCCc3cncn32)c(-c2ccccc2)c1 [CSN5i-3, 3-(Difluoromethyl)-N-(6-((5S,6S)-6-hydroxy-6,7,8,9-tetrahydro-5H-imidazo[1,5-a]azepin-5-yl)-[1,1′-biphenyl]-3-yl)-1-isopropyl-1H-pyrazole-5-carboxamide]
IC50 (RPN11 (26S proteasome)): 53 ± 26 µM | EC50 (SU-DHL-1 cells; Homo sapiens, SU-DHL-1, 72 h, read-out: EC50 cell viability): 0.013 µM | AMAX (SU-DHL-1 cells; SU-DHL-1 in vitro, 72 h): ≤ −95% | AMAX (HCT116 cells): ≤ −95% | dose dependence of exposure [1]: dose-linear exposure | Cul1 deneddylation in tumours (SU-DHL-1 xenografts): inhibited | Skp2 levels in tumours (SU-DHL-1 xenografts): reduced
